# In ChEMBL document CHEMBL3600349 (Bioorg Med Chem Lett, 2015):
# pIC50: −log10 of the molar value.
# Experiments:
# [1] = Lipophilicity, log P of the compound by HPLC analysis; type: physicochemical
# [2] = Half life in rat liver microsomes; type: ADME
# [3] = Intrinsic clearance in human hepatocytes assessed per 10^6 cells; type: ADME, cell-based, Hepatocyte; details: read-out: CLH
# [4] = test system: U-937; assay: Toxicity in human U937 cells assessed as first effect concentration for phospholipidosis by nile red uptake assay; type: cell-based
# [5] = target: Melanin-concentrating hormone receptor 1 (Homo sapiens, UniProt Q99705); assay: Displacement of [125I]-MCH from human MCH-R1 expressed in CHO/Galpha16 cells after 60 mins by scintillation counting; type: cell-based
# Sequence of Melanin-concentrating hormone receptor 1 (Q99705 whole entry): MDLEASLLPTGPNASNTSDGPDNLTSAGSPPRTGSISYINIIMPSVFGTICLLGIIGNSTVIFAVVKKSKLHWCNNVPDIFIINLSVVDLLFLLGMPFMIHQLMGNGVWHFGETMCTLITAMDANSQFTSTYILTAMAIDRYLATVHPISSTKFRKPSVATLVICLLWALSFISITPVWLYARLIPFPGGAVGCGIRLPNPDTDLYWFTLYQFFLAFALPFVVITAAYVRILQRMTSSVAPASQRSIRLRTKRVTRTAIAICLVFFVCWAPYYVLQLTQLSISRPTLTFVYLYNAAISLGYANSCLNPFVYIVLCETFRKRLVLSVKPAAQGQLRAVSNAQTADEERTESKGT
# [6] = target: hERG (KCNH2) (Homo sapiens, UniProt Q12809); assay: Inhibition of human ERG at 10 uM by patch clamp assay
# Sequence of hERG (KCNH2) (Q12809 whole entry): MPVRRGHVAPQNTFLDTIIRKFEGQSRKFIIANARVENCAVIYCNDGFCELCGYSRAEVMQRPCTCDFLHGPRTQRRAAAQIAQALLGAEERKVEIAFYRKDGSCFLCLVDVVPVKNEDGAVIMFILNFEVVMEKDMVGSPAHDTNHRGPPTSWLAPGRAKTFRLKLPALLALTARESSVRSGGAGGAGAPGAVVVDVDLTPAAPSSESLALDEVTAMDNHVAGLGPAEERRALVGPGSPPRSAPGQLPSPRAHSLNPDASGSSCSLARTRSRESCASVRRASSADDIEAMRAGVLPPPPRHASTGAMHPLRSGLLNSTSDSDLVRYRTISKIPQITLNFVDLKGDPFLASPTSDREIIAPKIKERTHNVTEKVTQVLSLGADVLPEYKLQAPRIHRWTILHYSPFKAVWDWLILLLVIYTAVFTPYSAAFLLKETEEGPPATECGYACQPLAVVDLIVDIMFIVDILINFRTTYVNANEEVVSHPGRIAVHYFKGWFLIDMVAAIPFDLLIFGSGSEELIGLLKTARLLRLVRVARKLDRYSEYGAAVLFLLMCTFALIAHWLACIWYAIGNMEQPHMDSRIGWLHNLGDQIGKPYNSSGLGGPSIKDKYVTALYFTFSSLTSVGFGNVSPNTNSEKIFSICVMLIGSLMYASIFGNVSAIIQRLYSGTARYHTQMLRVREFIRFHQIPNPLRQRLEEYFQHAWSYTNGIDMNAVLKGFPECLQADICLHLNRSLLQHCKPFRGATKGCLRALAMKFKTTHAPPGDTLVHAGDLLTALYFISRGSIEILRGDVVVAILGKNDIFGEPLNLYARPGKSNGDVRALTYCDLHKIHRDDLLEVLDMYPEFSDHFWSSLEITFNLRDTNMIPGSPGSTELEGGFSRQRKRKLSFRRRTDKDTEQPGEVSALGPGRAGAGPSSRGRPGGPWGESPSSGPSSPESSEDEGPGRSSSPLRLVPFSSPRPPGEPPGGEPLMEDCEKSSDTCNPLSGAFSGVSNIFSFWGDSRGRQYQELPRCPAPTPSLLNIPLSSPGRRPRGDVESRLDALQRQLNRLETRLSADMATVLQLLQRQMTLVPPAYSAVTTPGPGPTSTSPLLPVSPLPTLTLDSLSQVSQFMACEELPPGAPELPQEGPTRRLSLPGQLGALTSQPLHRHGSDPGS
# [7] = species on record: Homo sapiens; assay: Selectivity ratio, ratio of muscarinic M1 receptor (unknown origin) to human MCH-R1
# [8] = species on record: Homo sapiens; assay: Selectivity ratio, ratio of 5HT2A receptor (unknown origin) to human MCH-R1
Structure (SMILES),logP [1],half-life [2] [min],hepatocyte CLint [3] [µL/min/1e6 cells],pIC50 [5],Ratio [7],Ratio [8],Activity [4] [µM],inhibition at 10 µM [6] [%]
CN(C)Cc1ccc(C(=O)Cn2ncc(OCc3ccc(Br)cn3)cc2=O)cc1,3.1,7,58,7.66,,,,
Cc1cc(CN(C)C)ccc1C(=O)Cn1ccc(OCc2ccc(Br)cn2)cc1=O,2.8,45,21,,,,50,42
Cc1cc(CN(C)C)ccc1C(=O)Cn1ccc(OCc2ccccc2)cc1=O,3.3,24,4,,> 200,> 200,50,67
CN(C)Cc1ccc(C(=O)Cn2ncc(OCc3ccccc3)cc2=O)cc1,3.6,6,17,8.00,,,,
CN(C)Cc1ccc(C(=O)Cn2ccc(OCc3ccc(Cl)cn3)cc2=O)cc1,2.3,> 45,69,7.39,,,,

# Now from value to molecule, other results behind:
logP [1],half-life [2] [min],hepatocyte CLint [3] [µL/min/1e6 cells],pIC50 [5],Ratio [7],Ratio [8],Structure (SMILES),Activity [4] [µM],inhibition at 10 µM [6] [%]
3.4,29,12,,,,Cc1cc(CN(C)C)ccc1C(=O)Cn1ncc(OCc2ccc(Br)cn2)cc1=O,50,
3.1,> 45,,,,,Cc1cc(CN(C)C)ccc1C(=O)Cn1ncc(OCc2ccc(Cl)cn2)cc1=O,50,
2.9,14,,7.60,,,CN(C)Cc1ccc(C(=O)Cn2ncc(OCc3ccc(Cl)cn3)cc2=O)cc1,50,39
